{"source": "paper PMC7827406", "about": "“Structure–Activity Relationship (SAR) Study of Spautin-1 to Entail the Discovery of Novel NEK4 Inhibitors” (International Journal of Molecular Sciences, 2021)", "test_in_all_cases": "biochemical", "design_in_all_cases": "Eurofins KinaseProfiler full panel at Km ATP, residual kinase activity (%) relative to DMSO", "key": {"[1]": {"biological_target": "T1, Pim-2(h) (Homo sapiens, UniProt Q9P1W9)", "T1 construct": "gene PIM2", "T1 sequence (Q9P1W9 whole entry)": "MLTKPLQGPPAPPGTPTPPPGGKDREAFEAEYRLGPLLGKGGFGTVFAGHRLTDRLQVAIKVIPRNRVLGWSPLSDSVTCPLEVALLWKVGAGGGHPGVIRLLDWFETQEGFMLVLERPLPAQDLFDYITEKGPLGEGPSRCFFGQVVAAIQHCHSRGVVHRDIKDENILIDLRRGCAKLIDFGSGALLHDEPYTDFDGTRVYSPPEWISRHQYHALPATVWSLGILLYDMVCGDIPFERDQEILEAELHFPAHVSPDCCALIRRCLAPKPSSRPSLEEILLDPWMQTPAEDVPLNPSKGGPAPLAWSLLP", "summary_of_the_method": "(§1)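 Radiometric kinase activity assays were run with ATP at Km and compounds at 10 µM, and remaining activity (%) was reported. A separate competitive binding screen measured DNA-tagged kinase displaced from immobilized active-site ligands by qPCR, giving percent kinase still bound at 10 µM compound in DMSO.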"}, "[2]": {"biological_target": "WNK3(h) (Homo sapiens, UniProt Q9BYP7)", "sequence (Q9BYP7 whole entry)": "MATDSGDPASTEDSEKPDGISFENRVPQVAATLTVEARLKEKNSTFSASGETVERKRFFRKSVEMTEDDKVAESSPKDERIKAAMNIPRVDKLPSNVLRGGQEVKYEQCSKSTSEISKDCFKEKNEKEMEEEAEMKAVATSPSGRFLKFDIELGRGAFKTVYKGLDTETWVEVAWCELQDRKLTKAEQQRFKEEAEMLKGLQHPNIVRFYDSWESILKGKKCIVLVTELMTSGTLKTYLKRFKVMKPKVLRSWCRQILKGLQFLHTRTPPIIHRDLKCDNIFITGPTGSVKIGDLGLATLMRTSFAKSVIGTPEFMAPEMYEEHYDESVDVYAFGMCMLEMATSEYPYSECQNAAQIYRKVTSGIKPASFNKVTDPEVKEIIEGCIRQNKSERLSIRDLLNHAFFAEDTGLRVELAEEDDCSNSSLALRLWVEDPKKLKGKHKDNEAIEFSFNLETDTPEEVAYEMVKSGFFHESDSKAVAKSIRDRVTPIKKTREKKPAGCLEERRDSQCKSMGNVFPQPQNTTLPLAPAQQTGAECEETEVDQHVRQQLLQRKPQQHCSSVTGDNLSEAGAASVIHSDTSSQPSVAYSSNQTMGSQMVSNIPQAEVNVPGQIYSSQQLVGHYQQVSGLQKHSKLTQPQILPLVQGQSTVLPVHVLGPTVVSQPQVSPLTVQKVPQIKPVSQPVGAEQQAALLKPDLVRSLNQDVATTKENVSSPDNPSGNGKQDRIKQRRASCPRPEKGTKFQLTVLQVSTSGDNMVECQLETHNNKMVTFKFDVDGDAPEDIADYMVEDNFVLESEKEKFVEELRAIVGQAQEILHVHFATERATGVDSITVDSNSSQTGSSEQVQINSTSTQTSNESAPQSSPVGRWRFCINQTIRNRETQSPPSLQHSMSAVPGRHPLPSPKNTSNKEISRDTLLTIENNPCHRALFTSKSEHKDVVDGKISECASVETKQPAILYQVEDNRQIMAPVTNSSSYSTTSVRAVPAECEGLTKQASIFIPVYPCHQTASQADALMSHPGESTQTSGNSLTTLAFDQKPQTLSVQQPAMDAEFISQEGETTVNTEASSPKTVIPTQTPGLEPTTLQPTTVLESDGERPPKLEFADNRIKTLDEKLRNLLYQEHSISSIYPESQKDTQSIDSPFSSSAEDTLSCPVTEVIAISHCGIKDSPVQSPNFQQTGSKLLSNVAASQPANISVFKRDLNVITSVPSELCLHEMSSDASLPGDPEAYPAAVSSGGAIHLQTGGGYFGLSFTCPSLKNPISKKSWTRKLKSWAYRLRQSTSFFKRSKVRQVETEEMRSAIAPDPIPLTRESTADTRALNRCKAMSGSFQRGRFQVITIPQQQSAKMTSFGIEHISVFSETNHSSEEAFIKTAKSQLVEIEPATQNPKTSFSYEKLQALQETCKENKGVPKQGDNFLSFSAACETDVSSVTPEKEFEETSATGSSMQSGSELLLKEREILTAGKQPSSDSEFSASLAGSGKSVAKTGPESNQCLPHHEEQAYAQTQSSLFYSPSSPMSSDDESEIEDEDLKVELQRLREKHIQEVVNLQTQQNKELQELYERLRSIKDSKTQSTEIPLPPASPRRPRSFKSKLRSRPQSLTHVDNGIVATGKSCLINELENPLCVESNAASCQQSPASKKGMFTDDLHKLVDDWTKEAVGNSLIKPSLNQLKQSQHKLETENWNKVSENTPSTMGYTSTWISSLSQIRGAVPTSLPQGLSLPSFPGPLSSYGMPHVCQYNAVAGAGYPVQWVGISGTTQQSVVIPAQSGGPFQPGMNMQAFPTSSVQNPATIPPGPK", "summary_of_the_method": "as §1"}, "[3]": {"biological_target": "T2, PKG1α(h) (Homo sapiens, UniProt Q13976)", "T2 construct": "gene PRKG1; isoform 1alpha", "T2 sequence (Q13976 1-671)": "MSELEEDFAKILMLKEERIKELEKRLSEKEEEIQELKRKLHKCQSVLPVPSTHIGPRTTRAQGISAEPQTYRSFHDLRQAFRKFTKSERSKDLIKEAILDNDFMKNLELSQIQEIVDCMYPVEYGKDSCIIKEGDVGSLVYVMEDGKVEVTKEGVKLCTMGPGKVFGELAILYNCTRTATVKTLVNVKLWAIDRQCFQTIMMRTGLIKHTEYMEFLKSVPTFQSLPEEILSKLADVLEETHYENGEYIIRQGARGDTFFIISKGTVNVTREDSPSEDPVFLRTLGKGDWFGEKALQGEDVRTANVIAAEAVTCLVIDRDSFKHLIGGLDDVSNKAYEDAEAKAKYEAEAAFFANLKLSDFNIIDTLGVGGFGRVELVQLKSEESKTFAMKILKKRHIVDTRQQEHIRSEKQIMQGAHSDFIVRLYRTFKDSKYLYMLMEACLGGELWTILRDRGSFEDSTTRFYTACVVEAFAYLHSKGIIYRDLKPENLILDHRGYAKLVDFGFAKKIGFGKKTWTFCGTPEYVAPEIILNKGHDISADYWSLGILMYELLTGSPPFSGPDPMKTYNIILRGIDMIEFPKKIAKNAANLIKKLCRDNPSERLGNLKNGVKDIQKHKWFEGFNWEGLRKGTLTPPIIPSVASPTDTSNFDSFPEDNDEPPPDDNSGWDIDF", "summary_of_the_method": "as §1"}, "[4]": {"biological_target": "T3, PI3 Kinase (p110d/p85a)(h) (Homo sapiens, UniProt O00329)", "T3 construct": "gene PIK3CD", "T3 sequence (O00329 whole entry)": "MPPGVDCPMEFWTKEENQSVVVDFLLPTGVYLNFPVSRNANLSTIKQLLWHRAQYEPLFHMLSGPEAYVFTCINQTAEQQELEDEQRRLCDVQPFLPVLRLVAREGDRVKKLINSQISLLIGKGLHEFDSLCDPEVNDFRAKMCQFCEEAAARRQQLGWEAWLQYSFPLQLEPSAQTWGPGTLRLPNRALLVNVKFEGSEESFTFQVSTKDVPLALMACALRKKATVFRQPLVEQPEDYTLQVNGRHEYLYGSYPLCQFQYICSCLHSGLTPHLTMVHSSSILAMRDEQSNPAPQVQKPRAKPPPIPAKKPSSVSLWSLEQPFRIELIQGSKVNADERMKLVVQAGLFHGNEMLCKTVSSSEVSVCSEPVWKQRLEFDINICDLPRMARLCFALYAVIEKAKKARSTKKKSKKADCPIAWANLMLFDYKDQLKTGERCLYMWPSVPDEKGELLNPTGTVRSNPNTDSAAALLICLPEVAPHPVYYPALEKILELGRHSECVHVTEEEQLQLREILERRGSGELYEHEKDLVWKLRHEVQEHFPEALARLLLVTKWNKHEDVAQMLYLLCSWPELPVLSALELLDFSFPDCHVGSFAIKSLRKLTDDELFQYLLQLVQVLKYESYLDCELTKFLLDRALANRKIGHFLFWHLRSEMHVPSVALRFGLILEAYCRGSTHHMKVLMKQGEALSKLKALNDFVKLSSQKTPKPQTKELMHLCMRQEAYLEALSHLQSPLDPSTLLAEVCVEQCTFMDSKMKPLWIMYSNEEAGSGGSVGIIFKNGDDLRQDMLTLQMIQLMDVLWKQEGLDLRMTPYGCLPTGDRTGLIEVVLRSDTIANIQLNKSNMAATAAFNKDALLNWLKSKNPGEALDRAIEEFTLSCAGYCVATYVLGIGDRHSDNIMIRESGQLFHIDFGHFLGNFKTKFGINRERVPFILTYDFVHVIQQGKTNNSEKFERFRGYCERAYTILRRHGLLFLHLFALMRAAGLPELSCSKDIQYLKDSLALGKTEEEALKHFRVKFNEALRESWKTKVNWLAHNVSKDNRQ", "T3 sequence (P27986 whole entry partner)": "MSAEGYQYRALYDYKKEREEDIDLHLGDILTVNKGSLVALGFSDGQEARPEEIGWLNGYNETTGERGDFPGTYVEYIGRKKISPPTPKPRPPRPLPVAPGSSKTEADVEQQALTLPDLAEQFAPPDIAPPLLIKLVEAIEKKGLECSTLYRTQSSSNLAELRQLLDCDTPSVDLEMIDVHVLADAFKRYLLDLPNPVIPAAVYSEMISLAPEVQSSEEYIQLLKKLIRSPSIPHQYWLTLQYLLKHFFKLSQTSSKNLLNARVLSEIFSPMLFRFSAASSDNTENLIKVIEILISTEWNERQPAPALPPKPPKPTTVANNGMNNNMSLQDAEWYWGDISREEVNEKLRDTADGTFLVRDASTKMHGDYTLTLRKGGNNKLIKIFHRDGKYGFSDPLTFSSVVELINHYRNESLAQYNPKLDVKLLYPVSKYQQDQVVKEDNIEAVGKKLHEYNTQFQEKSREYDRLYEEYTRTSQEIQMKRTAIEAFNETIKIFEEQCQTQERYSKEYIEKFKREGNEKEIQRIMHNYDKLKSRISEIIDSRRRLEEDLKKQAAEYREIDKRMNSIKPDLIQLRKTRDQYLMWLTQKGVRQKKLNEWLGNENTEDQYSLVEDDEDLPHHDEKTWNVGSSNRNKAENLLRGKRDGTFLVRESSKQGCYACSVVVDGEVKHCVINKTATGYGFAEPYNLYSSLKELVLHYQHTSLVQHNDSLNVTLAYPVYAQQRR", "summary_of_the_method": "as §1"}, "[5]": {"biological_target": "T4, MARK4(h) (Homo sapiens, UniProt Q96L34)", "T4 sequence (Q96L34 1-752)": "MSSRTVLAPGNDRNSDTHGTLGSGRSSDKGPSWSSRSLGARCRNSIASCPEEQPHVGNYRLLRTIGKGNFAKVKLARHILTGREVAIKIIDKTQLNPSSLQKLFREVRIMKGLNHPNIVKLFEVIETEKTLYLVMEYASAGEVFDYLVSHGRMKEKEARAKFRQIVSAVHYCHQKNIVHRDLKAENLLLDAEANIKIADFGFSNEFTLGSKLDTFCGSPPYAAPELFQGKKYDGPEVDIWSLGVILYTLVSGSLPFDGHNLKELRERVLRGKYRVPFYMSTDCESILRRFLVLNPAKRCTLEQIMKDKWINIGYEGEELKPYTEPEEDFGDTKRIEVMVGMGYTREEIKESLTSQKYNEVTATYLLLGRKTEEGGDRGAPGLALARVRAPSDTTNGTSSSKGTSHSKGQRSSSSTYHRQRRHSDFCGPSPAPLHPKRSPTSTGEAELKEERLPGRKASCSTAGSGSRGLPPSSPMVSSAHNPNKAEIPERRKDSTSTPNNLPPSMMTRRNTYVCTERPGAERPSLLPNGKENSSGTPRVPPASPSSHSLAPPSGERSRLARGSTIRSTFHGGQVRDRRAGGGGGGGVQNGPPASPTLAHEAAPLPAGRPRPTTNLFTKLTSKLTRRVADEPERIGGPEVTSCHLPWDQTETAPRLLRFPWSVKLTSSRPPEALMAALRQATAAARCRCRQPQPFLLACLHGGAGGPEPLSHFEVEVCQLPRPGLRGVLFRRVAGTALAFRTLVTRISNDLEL", "summary_of_the_method": "as §1"}, "[6]": {"conditions": "read-out: Residual activity (%) Spautin-1 5aa"}, "[7]": {"conditions": "read-out: Residual activity (%) 5as"}, "[8]": {"conditions": "read-out: Residual activity (%) 5at"}, "[9]": {"conditions": "read-out: Residual activity (%) 5ay"}}, "note": "Read-outs that look alike come from different tables or passages of the source.", "data": [{"smiles": "Fc1ccc(CNc2ncnc3ccc(F)cc23)cc1", "note": "[5aa, 6-Fluoro-N-(4-fluorobenzyl)-4-Quinazolinamine]", "values": [{"measurement": "remaining activity at 10 µM", "setting": "[1]; [6]", "value": 80, "unit": "%"}, {"measurement": "remaining activity at 10 µM", "setting": "[2]; [6]", "value": 90, "unit": "%"}, {"measurement": "remaining activity at 10 µM", "setting": "[3]; [6]", "value": 91, "unit": "%"}, {"measurement": "remaining activity at 10 µM", "setting": "[4]; [6]", "value": 93, "unit": "%"}, {"measurement": "remaining activity at 10 µM", "setting": "[5]; [6]", "value": 107, "unit": "%"}]}, {"smiles": "Fc1ccc(CCNc2ncnc3ccc(F)cc23)cc1", "note": "[5as, 6-Fluoro-N-[2-(4-Fluorophenyl)Ethyl]-4-Quinazolinamine]", "values": [{"measurement": "remaining activity at 10 µM", "setting": "[1]; [7]", "value": 73, "unit": "%"}, {"measurement": "remaining activity at 10 µM", "setting": "[2]; [7]", "value": 98, "unit": "%"}, {"measurement": "remaining activity at 10 µM", "setting": "[3]; [7]", "value": 96, "unit": "%"}, {"measurement": "remaining activity at 10 µM", "setting": "[4]; [7]", "value": 84, "unit": "%"}, {"measurement": "remaining activity at 10 µM", "setting": "[5]; [7]", "value": 104, "unit": "%"}]}, {"smiles": "Fc1ccc2ncnc(NCCc3ccc(Cl)cc3)c2c1", "note": "[5at, N-[2-(4-Chlorophenyl)Ethyl]-6-Fluoro-4-Quinazolinamine]", "values": [{"measurement": "remaining activity at 10 µM", "setting": "[1]; [8]", "value": 70, "unit": "%"}, {"measurement": "remaining activity at 10 µM", "setting": "[2]; [8]", "value": 86, "unit": "%"}, {"measurement": "remaining activity at 10 µM", "setting": "[3]; [8]", "value": 93, "unit": "%"}, {"measurement": "remaining activity at 10 µM", "setting": "[4]; [8]", "value": 80, "unit": "%"}, {"measurement": "remaining activity at 10 µM", "setting": "[5]; [8]", "value": 105, "unit": "%"}]}, {"smiles": "COc1ccc2ncnc(Nc3cccc(F)c3)c2c1", "note": "[5ay, N-(3-Fluorophenyl)-6-Methoxy-4-Quinazolinamine]", "values": [{"measurement": "remaining activity at 10 µM", "setting": "[1]; [9]", "value": 76, "unit": "%"}, {"measurement": "remaining activity at 10 µM", "setting": "[2]; [9]", "value": 104, "unit": "%"}, {"measurement": "remaining activity at 10 µM", "setting": "[3]; [9]", "value": 95, "unit": "%"}, {"measurement": "remaining activity at 10 µM", "setting": "[4]; [9]", "value": 96, "unit": "%"}, {"measurement": "remaining activity at 10 µM", "setting": "[5]; [9]", "value": 100, "unit": "%"}]}]}
